Reference: patent publication US20230015949A1, “NEISSERIA TREATMENT USING CANNABINOIDS” (priority 2019, published 2023)
≈ marks a conversion by molar mass, not a printed value. Where two headings read alike, the source gives them in different places.

Columns and labels:
Neisseria gonorrhoeae [1] = details: N. gonorrhoeae ATCC 49226; in parentheses in broth microdilution columns; ranges are for agar dilution testing; cited from earlier work
Neisseria meningitidis = test: Broth microdilution MIC testing (Example 1); type: cell-based; details: Neisseria meningitidis, ATCC13090; N. meningitidis MMX 0707 / ATCC 13090; broth microdilution; read-out: MIC
Protocol: (§1) In this study, to evaluate the spectrum of activity, cannabidiol (CBD) was profiled against Neisseria. Testing was conducted following guidelines recommended by the Clinical and Laboratory Standards Institute (CLSI, 1-4), using vancomycin, meropenem, levofloxacin, and gentamicin as comparators for testing aerobic bacteria.
(§2) Test agents were supplied by Micromyx. Stock solutions of all compounds were prepared on the first day of testing at 101× the highest test concentration using solvents recommended by CLSI. CBD was prepared fresh on each of testing.
(§3) The test organisms evaluated in this study consisted of clinical isolates from the Micromyx Repository, reference isolates from the American Type Culture Collection (ATCC; Manassas, Va.), isolates from the antibiotic resistance bank from the Centers for Disease Control and Prevention (CDC; Atlanta, Ga.), and isolates from the Network on Antimicrobial Resistance in Staphylococcus aureus (NARSA; BEI Resources, Manassas, Va.). Upon initial receipt at Micromyx, the organisms were sub-cultured onto an appropriate agar medium. Following incubation, colonies were harvested from these plates and cell suspensions prepared and frozen at −80° C. with a cryoprotectant.
(§4) Prior to testing, Neisseria was streaked onto Chocolate agar (BD; Lot No. 9228071) and incubated at 35° C. in 5% CO2 for 24 hr.
(§5) For Neisseria, a modified medium described by the ATCC as capable of supporting growth was used. This medium contains 15 g Oxoid Special Peptone, 1 g corn starch (Ward's Science; Rochester, N.Y.; Lot 39-3271), 5 g NaCl (VWR; 57897), 4 g K2HPO4 (Sigma; Lot SLBT7061), 1 g KH2PO4 (SLBC1921V), and 1% IsoVitaleX (BD; Lot 8323954) enrichment per 500 mL.
(§6) MIC values were determined using a broth microdilution procedure described by CLSI (1-4). Automated liquid handlers (Multidrop 384, Labsystems, Helsinki, Finland; Biomek 2000 and Biomek FX, Beckman Coulter, Fullerton, Calif.) were used to conduct serial dilutions and liquid transfers.
(§7) To prepare the drug mother plates, which would provide the serial drug dilutions for the replicate daughter plates, the wells of columns 2 through 12 of standard 96-well microdilution plates (Costar 3795) were filled with 150 μl of the designated diluent for each row of drug. The test article and comparator compounds (300 μl at 101× the highest concentration to be tested) were dispensed into the appropriate wells in column 1. The Biomek 2000 was then used to make 2-fold serial dilutions in the mother plates from column 1 through column 11. The wells of column 12 contained no drug and served as the organism growth control wells for the assay.
(§8) The daughter plates were loaded with 190 μL per well of the appropriate test medium for the tested organism using the Multidrop 384. The daughter plates were completed on the Biomek FX instrument which transferred 2 μL of drug solution from each well of a mother plate to the corresponding well of each daughter plate in a single step.
A standardized inoculum of each test organism was prepared per CLSI methods (1-4). The inoculum for each organism was dispensed into sterile reservoirs divided by length (Beckman Coulter), and the Biomek 2000 was used to inoculate the plates. […]
The plates for testing of aerobic organisms were stacked 3 to 4 high, covered with a sterile lid, and incubated at 35° C. and 5% CO2 for the time periods specified in CLSI (1-4). […] The MIC was read and recorded as the lowest concentration of drug that inhibited visible growth of the organism.

Neisseria gonorrhoeae [2] = test: Broth microdilution MIC testing (Example 1); type: cell-based; details: Neisseria gonorrhoeae, broth microdilution, read-out: MIC
Protocol: as §1, §2, §3, §4, §5, §6, §7, §8
A standardized inoculum of each test organism was prepared per CLSI methods (1-4). The inoculum for each organism was dispensed into sterile reservoirs divided by length (Beckman Coulter), and the Biomek 2000 was used to inoculate the plates. Daughter plates were placed on the Biomek 2000 work surface in reverse orientation so that inoculation took place from low to high drug concentration. Plates were inoculated with 10 μL of the inoculum resulting in a final cell density of approximately 5×10^5 CFU/mL per well.
The plates for testing of aerobic organisms were stacked 3 to 4 high, covered with a sterile lid, and incubated at 35° C. and 5% CO2 for the time periods specified in CLSI (1-4). […] Following incubation, the microplates were removed from the incubator and viewed from the bottom using a plate viewer. […] The MIC was read and recorded as the lowest concentration of drug that inhibited visible growth of the organism.

[3] = Un-inoculated solubility control plate, drug precipitation; type: physicochemical; details: Neisseria test medium and CAMHB

SMILES	CLSI QC range of MIC (Neisseria gonorrhoeae [1]) [µg/mL]	MIC (Neisseria meningitidis) [µg/mL]	MIC (Neisseria gonorrhoeae [2]; ATCC49226, N. gonorrhoeae MMX 0683 / ATCC 49226, plate read at 40 hr) [µg/mL]	MIC (Neisseria gonorrhoeae [2]; N. gonorrhoeae MMX 6746) [µg/mL]	MIC (Neisseria gonorrhoeae [2]; N. gonorrhoeae MMX 6757, plate read at 40 hr) [µg/mL]	Concentration at which precipitation was seen [3] [µg/mL]
CC[C@H]1OC(=O)[C@H](C)[C@@H](O[C@H]2C[C@@](C)(OC)[C@@H](O)[C@H](C)O2)[C@H](C)[C@@H](O[C@@H]2O[C@H](C)C[C@H](N(C)C)[C@H]2O)[C@](C)(O)C[C@@H](C)CN(C)[C@H](C)[C@@H](O)[C@]1(C)O [AZI, azithromycin]	0.25 to 1	–	–	–	–	–
C=C(C)C1CCC(C)=CC1c1c(O)cc(CCCCC)cc1O (stereo not drawn) [CBD, 2-[3-methyl-6-(1-methylethenyl)-2-cyclohexen-1-yl]-5-pentyl-1,3-benzenediol]	–	0.25 (≈ 0.795 µM)	1 (≈ 3.18 µM)	1 (≈ 3.18 µM)	2 (≈ 6.36 µM)	≥ 8
